Where two headings read alike, the source gives them in different places.
Experiments:
FKBP52 = target: T1, FKBP52 (Homo sapiens, UniProt Q02790); experiment: Fluorescence polarization binding assay, FK1-domain of FKBP52WT with tracer F2 (selectivity FKBP51 vs. FKBP52); details: selectivity factor over FKBP52
T1 construct: Purified FK1-domains of FKBP51WT (4.5 nM) with F4 (3 nM), FKBP52WT (400 nM) with F2 (20 nM); implied by Ni-NTA purification) (N); made in house; host or cells: E. coli BL21(DE3)pLysS
T1 sequence (Q02790 50-138 limits assumed): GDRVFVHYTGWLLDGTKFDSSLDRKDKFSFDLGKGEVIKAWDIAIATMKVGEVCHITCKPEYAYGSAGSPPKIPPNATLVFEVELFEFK
Experimental: (§1) The target protein was also diluted in this assay buffer at double the highest concentration required for the final sample. This protein stock was used for a 1:1 serial dilution.
(§2) The inventive compound was dissolved in DMSO to reach a 100-times concentrated stock solution. This was used for a 1:1 serial dilution in DMSO.
(§3) For FKBP12, −51, and −52 the binding assays were performed in duplicates in the plate format.
(§4) The competition curves were analyzed by using SigmaPlot9. Data were fitted to a four parameter logistic curve to deduce the IC50 values. […] A=(Amax−Amin)/[L]t×(([L]t×((2×((Klig+Kcomp+[L]t+[I]t−[R]t)^2−3×(Kcomp×([L]t−[R]t)+Klig×([I]t−[R]t)+Klig×Kcomp))^0.5×COS(ARCCOS((−2×(Klig+Kcomp+[L]t+[I]t−[R]t)^3+9×(Klig+Kcomp+[L]t+[I]t−[R]t)×(Kcomp×([L]t−[R]t)+Klig×([I]t−[R]t)+Klig×Kcomp)−27×(−1×Klig×Kcomp×[R]t))/(2×((((Klig+Kcomp+[L]t+[I]t−[R]t)^2−3×(Kcomp×([L]t−[R]t)+Klig×([I]t−[R]t)+Klig×Kcomp))^3)^0.5)))/3))−(Klig+Kcomp+[L]t+[I]t−[R]t)))/((3×Klig)+((2×((Klig+Kcomp+[L]t+[I]t−[R]t)^2−3×(Kcomp×([L]t−[R]t)+Klig×([I]t−[R]t)+Klig×Kcomp))^0.5×COS(ARCCOS((−2×(Klig+Kcomp+[L]t+[I]t−[R]t)^3+9×(Klig+Kcomp+[L]t+[I]t−[R]t)×(Kcomp×([L]t−[R]t)+Klig×([I]t−[R]t)+Klig×Kcomp)−27×(−1×Klig×Kcomp×[R]t))/(2×((((Klig+Kcomp+[L]t+[I]t−[R]t)^2−3×(Kcomp×([L]t−[R]t)+Klig×([I]t−[R]t)+Klig×Kcomp))^3)^0.5)))/3))−(Klig+Kcomp+[L]t+[I]t−[R]t))))+Amin
(§5) In this equation Klig and Kcomp stand for the Kd values of the used tracer or competing inhibitor, [I]t is referring to the total concentration of the titrated inhibitor.
The Selectivity of the Compounds was Classified by Ki(FKBP51)/Ki(FKBP52)
(§6) Inhibition constants were measured in a fluorescence polarization binding assay by titrating the compounds.

FKBP51 = target: T2, FKBP51 (Homo sapiens, UniProt Q13451); experiment: Fluorescence polarization binding assay, FK1-domain of FKBP51WT with tracer F4; design: Purified FK1-domains of FKBP51WT (4.5 nM) with F4 (3 nM), FKBP52WT (400 nM) with F2 (20 nM); made in house; host or cells: E. coli BL21(DE3)pLysS; details: read-out: Affinity(Ki) for FKBP51
T2 sequence (Q13451 42-130 limits assumed): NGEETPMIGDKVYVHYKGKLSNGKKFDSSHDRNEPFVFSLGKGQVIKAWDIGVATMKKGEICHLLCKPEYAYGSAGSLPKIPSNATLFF
Experimental: as §1, §2, §3, §4, §5, §6

[1] = FKBP52WT (400 nM) with F2 (20 nM), A series
[2] = FK1-domain of FKBP51WT (4.5 nM) with F4 (3 nM), A series

Row | Compound | Ki(FKBP51)/Ki(FKBP52) (FKBP52; [1]) | Ki (FKBP51; [2]) | Ki(FKBP51)/Ki(FKBP52) (FKBP52; compounds B01-C25) | Ki (FKBP51; compounds B01-C25)
1 | COc1cc([C@@H](C(=O)N2CCCC[C@H]2C(=O)OC(CCCc2cccnc2)CCCc2cccnc2)[C@@H]2C=CCCC2)cc(OC)c1OC [Compound A13, (S)-1,7-Di(pyridin-3-yl)heptan-4-yl-1-((S)-2-((S)-cyclohex-2-en-1-yl)-2-(3,4,5-trimethoxyphenyl)acetyl)piperidine-2-carboxylate] | +++ (>500 +++) | < 0.1 µM |  | 
2 | COc1cc([C@@H](C(=O)N2CCCC[C@H]2C(=O)OC(CCCc2cccnc2)CCCc2cccnc2)C2CCCCC2)cc(OC)c1OC [Compound A19, (2S)-1,7-di(pyridin-3-yl)heptan-4-yl 1-(2-cyclohexyl-2-(3,4,5-trimethoxyphenyl)acetyl)piperidine-2-carboxylate] | +++ (>500 +++) | < 0.1 µM |  | 
3 | COc1cc([C@@H](C(=O)N2CCCC[C@H]2C(=O)NC2(C(N)=O)CCOCC2)C2CCCCC2)cc(OC)c1OC [Compound B32] |  |  | ++ (>50 ++) | 10 to 50 µM
4 | COc1cc([C@@H](C(=O)N2CCCC[C@H]2C(=O)N[C@@H](CCC2CCCCC2)C(N)=O)C2CCCCC2)cc(OC)c1OC [Compound B09, (S)-N-((S)-1-amino-4-cyclohexyl-1-oxobutan-2-yl)-1-((S)-2-cyclohexyl-2-(3,4,5-trimethoxyphenyl)acetyl)piperidine-2-carboxamide] |  |  | ++ (>50 ++) | 10 to 50 µM
5 | COc1cc([C@@H](C(=O)N2CCCC[C@H]2C(=O)N[C@H](Cc2c[nH]cn2)C(N)=O)C2CCCCC2)cc(OC)c1OC [Compound B34, (S)-N-((R)-1-amino-3-(1H-imidazol-4-yl)-1-oxopropan-2-yl)-1-((S)-2-cyclohexyl-2-(3,4,5-trimethoxyphenyl)acetyl)piperidine-2-carboxamide] |  |  | ++ (>50 ++) | 10 to 50 µM
6 | COc1cc([C@@H](C(=O)N2CCCC[C@H]2C(=O)NCCC(N)=O)C2CCCCC2)cc(OC)c1OC [Compound B29, (S)-N-(3-amino-3-oxopropyl)-1-((S)-2-cyclohexyl-2-(3,4,5-trimethoxyphenyl)acetyl)piperidine-2-carboxamide] |  |  | ++ (>50 ++) | 1 to 10 µM
7 | COc1cc([C@@H](C(=O)N2CCCC[C@H]2C(=O)N[C@@H](CCc2ccccc2)C(N)=O)C2CCCCC2)cc(OC)c1OC [Compound B08, (S)-N-((S)-1-amino-1-oxo-4-phenylbutan-2-yl)-1-((S)-2-cyclohexyl-2-(3,4,5-trimethoxyphenyl)acetyl)piperidine-2-carboxamide] |  |  | ++ (>50 ++) | 1 to 10 µM
8 | COc1cc([C@@H](C(=O)N2CCCC[C@H]2C(=O)N[C@@H](Cc2ccccc2)C(N)=O)C2CCCCC2)cc(OC)c1OC [Compound B05, (S)-N-((S)-1-amino-1-oxo-3-phenylpropan-2-yl)-1-((S)-2-cyclohexyl-2-(3,4,5-trimethoxyphenyl)acetyl)piperidine-2-carboxamide] |  |  | ++ (>50 ++) | 1 to 10 µM
9 | COc1cc([C@@H](C(=O)N2CCCC[C@H]2C(=O)NCC(N)=O)C2CCCCC2)cc(OC)c1OC [Compound B10, (S)-N-(2-amino-2-oxoethyl)-1-((S)-2-cyclohexyl-2-(3,4,5-trimethoxyphenyl)acetyl)piperidine-2-carboxamide] |  |  | + (>5 +) | 10 to 50 µM
10 | COc1cc([C@@H](C(=O)N2CCCC[C@H]2C(=O)N[C@@H](CCC(N)=O)C(N)=O)C2CCCCC2)cc(OC)c1OC [Compound B23, (S)-2-((S)-1-((S)-2-cyclohexyl-2-(3,4,5-trimethoxyphenyl)acetyl)piperidine-2-carboxamido)pentanediamide] |  |  | + (>5 +) | 10 to 50 µM
11 | COc1ccc(OCCOC(=O)[C@@H]2CCCCN2C(=O)[C@H](c2cc(OC)c(OC)c(OC)c2)C2CCCCC2)cc1OC [Compound A20, (S)-2-(3,4-dimethoxyphenoxy)ethyl-1-((S)-2-cyclohexyl-2-(3,4,5-trimethoxyphenyl)acetyl)piperidine-2-carboxylate] | ++ (>50 ++) | 0.1 to 1 µM |  | 
12 | COc1cc([C@@H](C(=O)N2CCCC[C@H]2C(=O)N[C@@H](C)C(N)=O)C2CCCCC2)cc(OC)c1OC [Compound B01, (S)-N-((S)-1-amino-1-oxopropan-2-yl)-1-((S)-2-cyclohexyl-2-(3,4,5-trimethoxyphenyl)acetyl)piperidine-2-carboxamide] |  |  | ++ (>50 ++) | 1 to 10 µM
13 | CC[C@@H](NC(=O)[C@@H]1CCCCN1C(=O)[C@H](c1cc(OC)c(OC)c(OC)c1)C1CCCCC1)C(N)=O [Compound B13, (S)-N-((R)-1-amino-1-oxobutan-2-yl)-1-((S)-2-cyclohexyl-2-(3,4,5-trimethoxyphenyl)acetyl)piperidine-2-carboxamide] |  |  | ++ (>50 ++) | 1 to 10 µM
14 | C=CC[C@H](C(=O)N1CCCC[C@H]1C(=O)OC(CCCc1cccnc1)CCCc1cccnc1)c1cc(OC)c(OC)c(OC)c1 [Compound A04, (S)-1,7-di(pyridin-3-yl)heptan-4-yl 1-((S)-2-(3,4,5-trimethoxyphenyl)pent-4-enoyl)piperidine-2-carboxylate] | + (>5 +) | 10 to 50 µM |  | 

The remaining lines, values ahead:

Row | Ki(FKBP51)/Ki(FKBP52) (FKBP52; [1]) | Ki (FKBP51; [2]) | Ki(FKBP51)/Ki(FKBP52) (FKBP52; compounds B01-C25) | Ki (FKBP51; compounds B01-C25) | Compound
15 |  |  | ++ (>50 ++) | 1 to 10 µM | COc1cc([C@@H](C(=O)N2CCCC[C@H]2C(=O)OCCOCc2ccccc2)C2CCCCC2)cc(OC)c1OC [Compound C19, (S)-2-(benzyloxy)ethyl-1-((S)-2-cyclohexyl-2-(3,4,5-trimethoxyphenyl)acetyl) piperidine-2-carboxylate]
16 |  |  | ++ (>50 ++) | 1 to 10 µM | CCOC(=O)[C@@H]1CCCCN1C(=O)[C@H](c1cc(OC)c(OC)c(OC)c1)C1CCCCC1 [Compound C02, (S)-ethyl 1-((S)-2-cyclohexyl-2-(3,4,5-trimethoxyphenyl)acetyl)piperidine-2-carboxylate]
17 |  |  | +++ (>500 +++) | 1 to 10 µM | COc1cc([C@@H](C(=O)N2CCCC[C@H]2C(=O)O[C@H](C)COCc2ccccc2)C2CCCCC2)cc(OC)c1OC [Compound C24]
18 |  |  | +++ (>500 +++) | 1 to 10 µM | COCCCCOC(=O)[C@@H]1CCCCN1C(=O)[C@H](c1cc(OC)c(OC)c(OC)c1)C1CCCCC1 [Compound C23, (S)-4-methoxybutyl-1-((S)-2-cyclohexyl-2-(3,4,5-trimethoxyphenyl)acetyl) piperidine-2-carboxylate]
19 |  |  | ++ (>50 ++) | 10 to 50 µM | CCNC(=O)[C@@H]1CCCCN1C(=O)[C@H](c1cc(OC)c(OC)c(OC)c1)C1CCCCC1 [Compound C05, (S)-1-((S)-2-cyclohexyl-2-(3,4,5-trimethoxyphenyl)acetyl)-N-ethylpiperidine-2-carboxamide]
20 |  |  | ++ (>50 ++) | 1 to 10 µM | COc1cc([C@@H](C(=O)N2CCCC[C@H]2C(=O)OCCCOCc2ccccc2)C2CCCCC2)cc(OC)c1OC [Compound C21, (S)-3-(benzyloxy)propyl-1-((S)-2-cyclohexyl-2-(3,4,5-trimethoxyphenyl)acetyl) piperidine-2-carboxylate]
21 |  |  | ++ (>50 ++) | 1 to 10 µM | COC(=O)[C@@H]1CCCCN1C(=O)[C@H](c1cc(OC)c(OC)c(OC)c1)C1CCCCC1 [Compound C01, (S)-methyl 1-((S)-2-cyclohexyl-2-(3,4,5-trimethoxyphenyl)acetyl)piperidine-2-carboxylate]

— patent US9845292B2 (Max-Planck-Gesellschaft zur Förderung der Wissenschaften …, priority 2013, dated 2017)
